Assay [1] deals with Staphylococcus aureus. Nature of the assay: Antibacterial activity against Staphylococcus aureus assessed as bacterial growth inhibition incubated for 24 hrs by microplate reader analysis. Type of assay: functional.
Assay [2] deals with Translocator protein (Rattus norvegicus) (UniProt P16257). As to the kind of experiment: Activation of TSPO in rat C6 glioma cells assessed as increase in pregnenolone incubated for 2 hrs by radioimmuno assay. Type of assay: cell-based. Further details: concentration or dose not given beside the values. The note with it: filed as activator.
Assay [3] has as its target Replicase polyprotein 1ab (Severe acute respiratory syndrome coronavirus 2, UniProt P0DTD1). As to the kind of experiment: Inhibition of SARS-Cov-2 Main protease.
The target in assay [4] is T1, Phospholipase A2, membrane associated (Homo sapiens, UniProt P14555).
T1 sequence (P14555 whole entry): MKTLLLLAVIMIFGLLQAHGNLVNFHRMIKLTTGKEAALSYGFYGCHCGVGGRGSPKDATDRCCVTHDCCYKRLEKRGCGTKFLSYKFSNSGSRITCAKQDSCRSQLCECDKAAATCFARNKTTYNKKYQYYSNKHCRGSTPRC
As to the kind of experiment: Inhibition of human group IIA phospholipase A2 incubated for 30 mins by automatic plate reader analysis.

The target of assay [5] is T1, Phospholipase A2, membrane associated. Nature of the assay: Inhibition of human group IIA phospholipase A2 preincubated with compound for 10 mins followed by enzyme addition and measured after 30 mins by PC/DOC assay.
Assay [6] deals with T2, Translocator protein (Homo sapiens, UniProt P30536). Nature of the assay: Displacement of [3H] PK11195 from TSPO (unknown origin) assessed as inhibition constant. Background: In a radioligand displacement assay an active substance lowers the binding of a labelled ligand.
For another assay, the system named is SARS-CoV-2. Nature of the assay: Antiviral activity against SARS-CoV-2 infected in human Calu-3 cells. Type of assay: functional, organism-based. The note with it: Severe acute respiratory syndrome coronavirus 2, Calu-3.
For the next assay, the system named is Pseudomonas aeruginosa. Nature of the assay: Inhibition of quorum sensing system in Pseudomonas aeruginosa MH602 assessed as GFP level incubated for 15 hrs at 250 uM by microplate titre analysis relative to control. The assay is classed as functional.
Assay [7] relates to Escherichia coli. As to the kind of experiment: Inhibition of quorum sensing system in Escherichia coli MT102 assessed as GFP level incubated for 22 hrs at 250 uM by microplate titre analysis relative to control. Type of assay: functional.
The target in assay [8] is T2, Translocator protein. As to the kind of experiment: Displacement of [3H] PK11195 from TSPO in human U-87 MGcell membrane assessed as inhibition constant. Type of assay: cell membranes, U-87 MG.
Assay [9] can be described thus: Inhibition of SARS-CoV Main protease. Set-up: species or system Severe acute respiratory syndrome-related coronavirus.
The nature of assay [10]: Inhibition of MERS-CoV Main protease. Further details: species or system Middle East respiratory syndrome-related coronavirus.
The subject of assay [11] is Staphylococcus aureus. Nature of the assay: Antibacterial activity against Staphylococcus aureus SA38 infected in MRC5 assessed as bacterial growth inhibition by alamar blue assay. Type of assay: functional.
Assay [12] deals with GABA A receptor alpha-2/beta-2/gamma-2 (Homo sapiens) (UniProt P47870+P18507+P47869). As to the kind of experiment: Inhibition of alpha2beta2gamma2 GABAA receptor (unknown origin) relative to control. The assay is classed as protein-complex assay.
Assay [13] deals with GABA-A receptor; alpha-1/beta-2/gamma-2 (Homo sapiens) (UniProt P14867+P47870+P18507). As to the kind of experiment: Inhibition of alpha1beta2gamma2 GABAA receptor (unknown origin) relative to control. Type of assay: protein-complex assay.
The target in assay [14] is GABA-A receptor; alpha-5/beta-3/gamma-2 (Homo sapiens) (UniProt P18507+P28472+P31644). As to the kind of experiment: Inhibition of alpha5beta3gamma2 GABAA receptor (unknown origin) relative to control. Type of assay: protein-complex assay.
In assay [15] the test system is Staphylococcus aureus. As to the kind of experiment: Antibacterial activity against Staphylococcus aureus assessed as bacterial growth inhibition by microdilution analysis. Type of assay: functional. (Dilution methods test growth across graded concentrations, often in twofold steps.)
In another assay the test system is Bacillus cereus. As to the kind of experiment: Antibacterial activity against Bacillus cereus assessed as bacterial growth inhibition by microdilution analysis. The assay is classed as functional.
The next assay relates to Pseudomonas putida. Nature of the assay: Antibacterial activity against Pseudomonas putida assessed as bacterial growth inhibition by microdilution analysis. The assay is classed as functional.
The subject of assay [16] is Escherichia coli. As to the kind of experiment: Antibacterial activity against Escherichia coli assessed as bacterial growth inhibition by microdilution analysis. Type of assay: functional.
The target of assay [17] is Group IIE secretory phospholipase A2 (Mus musculus, UniProt Q9QUL3). Nature of the assay: Inhibition of mouse group IIE phospholipase A2 incubated for 10 to 20 mins cells by radiometric assay.
Assay [18] has as its target Group 10 secretory phospholipase A2 (Mus musculus, UniProt Q9QXX3). As to the kind of experiment: Inhibition of mouse group X phospholipase A2 incubated for 10 to 20 mins cells by radiometric assay.
For assay [19], the target named is Group 10 secretory phospholipase A2 (Homo sapiens, UniProt O15496). Nature of the assay: Inhibition of human group X phospholipase A2 incubated for 10 to 20 mins cells by radiometric assay.
In assay [20] the target is T1, Phospholipase A2, membrane associated. As to the kind of experiment: Inhibition of human group IIA phospholipase A2 incubated for 10 to 20 mins cells by radiometric assay.
Assay [21] deals with Phospholipase A2 group V (Homo sapiens, UniProt P39877). Nature of the assay: Inhibition of human group V phospholipase A2 expressed in Escherichia coli BL21(DE3) cells incubated for 10 to 20 mins cells by radiometric assay.
Assay [22] deals with Phospholipase A2 (Mus musculus, UniProt Q9Z0Y2). Nature of the assay: Inhibition of mouse group IB phospholipase A2 incubated for 10 to 20 mins cells by radiometric assay.
The target of assay [23] is Phospholipase A2, membrane associated (Mus musculus, UniProt P31482). Nature of the assay: Inhibition of mouse group IIA phospholipase A2 incubated for 10 to 20 mins cells by radiometric assay.
The target of assay [24] is Phospholipase A2 (Homo sapiens, UniProt P04054). As to the kind of experiment: Inhibition of human group IB phospholipase A2 expressed in Escherichia coli BL21 cells incubated for 10 to 20 mins cells by radiometric assay.
Assay [25] has as its target Group IIC secretory phospholipase A2 (Mus musculus, UniProt P48076). As to the kind of experiment: Inhibition of mouse group IIC phospholipase A2 incubated for 10 to 20 mins cells by radiometric assay.
Assay [26] deals with Phospholipase A2 group V (Mus musculus, UniProt P97391). Nature of the assay: Inhibition of mouse group V phospholipase A2 incubated for 10 to 20 mins cells by radiometric assay.
The target of assay [27] is Group IIE secretory phospholipase A2 (Homo sapiens, UniProt Q9NZK7). As to the kind of experiment: Inhibition of human group IIE phospholipase A2 expressed in Escherichia coli BL21 cells incubated for 10 to 20 mins cells by radiometric assay.
Another assay has as its target Procathepsin L (Homo sapiens, UniProt P07711). As to the kind of experiment: Inhibition of human Cathepsin L assessed as inhibition constant.
Assay [28] addresses Dipeptidyl peptidase 1 (Homo sapiens) (UniProt P53634). As to the kind of experiment: Inhibition of human Cathepsin C assessed as inhibition constant at 10 uM relative to control.
In the next assay the target is Cathepsin S (Homo sapiens, UniProt P25774). As to the kind of experiment: Inhibition of human Cathepsin S assessed as inhibition constant.
The target of another assay is Cathepsin K (Homo sapiens, UniProt P43235). Nature of the assay: Inhibition of human Cathepsin K assessed as inhibition constant.
A further assay is filed under the species Homo sapiens. As to the kind of experiment: Inhibition of human Cathepsin H assessed as inhibition constant at 10 uM relative to control.
The target in another assay is Cathepsin B (Homo sapiens, UniProt P07858). As to the kind of experiment: Inhibition of human Cathepsin B assessed as inhibition constant.
Assay [29] addresses Calpain-1 catalytic subunit (Homo sapiens, UniProt P07384). Nature of the assay: Inhibition of human Calpain I assessed as dissociation constant using Suc-Leu-Tyr-AMC as substrate preincubated for 15 mins followed by compound addition and measured after 40 mins by […].
The target of assay [30] is Translocator protein (Rattus norvegicus, UniProt P16257). As to the kind of experiment: Displacement of [3H]-PK11195 from rat kidney mitochondrial membrane TSPO receptor assessed as inhibition constant. The assay is classed as cell membranes.

The term MIC denotes the smallest concentration in the dilution series that meets the test's criterion for growth inhibition. What is called IC50 is the concentration at which inhibition is half-maximal. For orientation: Ki means the equilibrium dissociation constant of an inhibitor or competing ligand from its target. A word on the EC50: it is the midpoint of the concentration-response curve. As a reminder, the inhibition is how much of the control response was suppressed.

Converted amounts (≈) assume the structure as drawn.

T2 sequence (P30536 whole entry): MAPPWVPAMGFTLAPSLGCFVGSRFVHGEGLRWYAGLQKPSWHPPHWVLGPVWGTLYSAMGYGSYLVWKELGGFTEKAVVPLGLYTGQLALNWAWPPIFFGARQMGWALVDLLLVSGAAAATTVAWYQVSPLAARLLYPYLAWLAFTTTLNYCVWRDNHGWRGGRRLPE
Chain of Translocator protein (Rattus norvegicus) (P16257 whole entry, looked up): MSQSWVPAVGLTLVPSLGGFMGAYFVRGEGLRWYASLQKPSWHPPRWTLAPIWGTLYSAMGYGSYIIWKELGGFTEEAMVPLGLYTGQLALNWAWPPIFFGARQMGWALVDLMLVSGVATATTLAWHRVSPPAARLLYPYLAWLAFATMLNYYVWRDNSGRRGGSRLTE
Chain of Group IIE secretory phospholipase A2 (Mus musculus, UniProt Q9QUL3) (Q9QUL3 whole entry): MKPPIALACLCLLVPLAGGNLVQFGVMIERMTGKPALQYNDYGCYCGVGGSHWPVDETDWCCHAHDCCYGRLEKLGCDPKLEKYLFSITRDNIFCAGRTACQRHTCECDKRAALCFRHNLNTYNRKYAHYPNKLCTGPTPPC
Chain of Phospholipase A2, membrane associated (Mus musculus, UniProt P31482) (P31482 whole entry): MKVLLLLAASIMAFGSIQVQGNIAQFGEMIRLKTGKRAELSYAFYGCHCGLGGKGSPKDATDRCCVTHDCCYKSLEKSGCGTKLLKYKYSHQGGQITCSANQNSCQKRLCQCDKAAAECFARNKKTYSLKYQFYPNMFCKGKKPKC
Chain of Phospholipase A2 (Mus musculus, UniProt Q9Z0Y2) (Q9Z0Y2 whole entry): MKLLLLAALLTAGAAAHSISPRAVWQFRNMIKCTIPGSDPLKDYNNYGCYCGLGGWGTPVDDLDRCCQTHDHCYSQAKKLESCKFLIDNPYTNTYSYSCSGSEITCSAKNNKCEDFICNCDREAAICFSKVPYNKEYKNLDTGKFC
Chain of Cathepsin S (P25774 whole entry): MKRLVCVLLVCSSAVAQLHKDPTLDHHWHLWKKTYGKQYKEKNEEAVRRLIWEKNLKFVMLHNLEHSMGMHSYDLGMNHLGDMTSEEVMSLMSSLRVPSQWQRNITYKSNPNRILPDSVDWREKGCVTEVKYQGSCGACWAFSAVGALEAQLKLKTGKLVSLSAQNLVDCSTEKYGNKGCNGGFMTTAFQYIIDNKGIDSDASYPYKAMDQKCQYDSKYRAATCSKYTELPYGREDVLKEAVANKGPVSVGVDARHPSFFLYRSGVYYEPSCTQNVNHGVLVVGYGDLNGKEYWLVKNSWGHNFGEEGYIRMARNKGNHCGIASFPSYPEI
Chain of Calpain-1 catalytic subunit (P07384 whole entry): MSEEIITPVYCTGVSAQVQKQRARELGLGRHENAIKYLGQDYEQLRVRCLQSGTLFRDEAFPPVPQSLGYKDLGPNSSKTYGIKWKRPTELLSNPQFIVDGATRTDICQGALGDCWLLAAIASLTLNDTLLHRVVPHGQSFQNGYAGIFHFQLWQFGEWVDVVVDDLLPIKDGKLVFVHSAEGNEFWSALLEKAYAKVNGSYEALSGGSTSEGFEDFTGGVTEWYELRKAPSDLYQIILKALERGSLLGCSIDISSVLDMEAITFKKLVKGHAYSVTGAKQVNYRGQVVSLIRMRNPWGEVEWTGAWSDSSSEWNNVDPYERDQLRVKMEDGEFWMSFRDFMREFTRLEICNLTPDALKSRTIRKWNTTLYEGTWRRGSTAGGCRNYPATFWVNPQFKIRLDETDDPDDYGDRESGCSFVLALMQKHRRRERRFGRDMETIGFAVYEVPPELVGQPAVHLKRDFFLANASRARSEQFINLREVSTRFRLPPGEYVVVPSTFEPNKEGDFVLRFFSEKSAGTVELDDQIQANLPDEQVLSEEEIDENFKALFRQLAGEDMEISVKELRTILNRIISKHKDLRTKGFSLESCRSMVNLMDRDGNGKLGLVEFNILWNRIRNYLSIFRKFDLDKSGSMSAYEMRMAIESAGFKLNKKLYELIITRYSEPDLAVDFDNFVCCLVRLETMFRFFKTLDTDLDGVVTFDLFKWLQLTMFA
Chain of Phospholipase A2 (Homo sapiens, UniProt P04054) (P04054 whole entry): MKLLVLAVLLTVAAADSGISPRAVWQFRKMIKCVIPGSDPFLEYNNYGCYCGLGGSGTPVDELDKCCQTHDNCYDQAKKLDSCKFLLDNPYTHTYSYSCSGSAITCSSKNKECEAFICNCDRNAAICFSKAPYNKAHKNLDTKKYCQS
Chain of Procathepsin L (P07711 whole entry): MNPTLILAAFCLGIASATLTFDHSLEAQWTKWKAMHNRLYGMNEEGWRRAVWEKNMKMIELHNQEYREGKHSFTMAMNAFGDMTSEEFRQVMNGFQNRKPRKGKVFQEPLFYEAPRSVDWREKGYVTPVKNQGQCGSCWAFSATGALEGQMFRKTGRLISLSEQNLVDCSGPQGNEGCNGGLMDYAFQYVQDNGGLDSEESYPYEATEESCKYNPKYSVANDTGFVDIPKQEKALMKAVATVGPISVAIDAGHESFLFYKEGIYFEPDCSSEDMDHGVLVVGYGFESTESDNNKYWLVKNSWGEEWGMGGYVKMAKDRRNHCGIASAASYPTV
Chain of Cathepsin K (P43235 whole entry): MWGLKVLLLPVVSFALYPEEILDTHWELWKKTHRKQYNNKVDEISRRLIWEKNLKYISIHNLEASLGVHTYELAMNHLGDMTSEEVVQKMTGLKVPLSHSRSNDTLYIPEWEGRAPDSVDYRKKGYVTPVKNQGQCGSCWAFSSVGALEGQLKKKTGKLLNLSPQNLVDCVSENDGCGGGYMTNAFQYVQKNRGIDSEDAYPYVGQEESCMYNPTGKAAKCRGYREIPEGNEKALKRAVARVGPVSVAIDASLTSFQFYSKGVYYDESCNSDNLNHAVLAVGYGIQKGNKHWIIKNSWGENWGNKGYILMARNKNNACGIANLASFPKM
Chain of Group 10 secretory phospholipase A2 (Homo sapiens, UniProt O15496) (O15496 whole entry): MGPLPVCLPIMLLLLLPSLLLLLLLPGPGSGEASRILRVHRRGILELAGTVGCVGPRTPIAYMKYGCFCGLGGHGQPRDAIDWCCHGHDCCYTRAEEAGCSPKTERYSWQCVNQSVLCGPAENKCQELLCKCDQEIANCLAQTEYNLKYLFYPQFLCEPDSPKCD
Chain of Dipeptidyl peptidase 1 (Homo sapiens) (P53634 25-134 limits assumed): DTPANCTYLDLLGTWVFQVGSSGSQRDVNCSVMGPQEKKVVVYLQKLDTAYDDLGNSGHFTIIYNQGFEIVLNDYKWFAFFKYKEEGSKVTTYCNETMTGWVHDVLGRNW
Chain of Dipeptidyl peptidase 1 (Homo sapiens) (P53634 231-394 limits assumed): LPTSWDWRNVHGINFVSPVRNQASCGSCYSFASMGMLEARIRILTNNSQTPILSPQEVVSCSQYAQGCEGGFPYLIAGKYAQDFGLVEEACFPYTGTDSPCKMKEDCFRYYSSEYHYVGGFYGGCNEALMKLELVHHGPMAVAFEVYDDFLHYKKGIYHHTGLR
Chain of Dipeptidyl peptidase 1 (Homo sapiens) (P53634 395-463 limits assumed): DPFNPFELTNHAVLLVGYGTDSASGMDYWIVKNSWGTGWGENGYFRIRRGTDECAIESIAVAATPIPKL
Chain of Phospholipase A2 group V (Mus musculus, UniProt P97391) (P97391 whole entry): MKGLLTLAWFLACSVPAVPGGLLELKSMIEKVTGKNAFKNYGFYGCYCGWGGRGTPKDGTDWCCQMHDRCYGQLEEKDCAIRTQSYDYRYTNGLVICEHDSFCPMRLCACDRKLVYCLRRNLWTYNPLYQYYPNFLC
Chain of Group IIC secretory phospholipase A2 (P48076 whole entry): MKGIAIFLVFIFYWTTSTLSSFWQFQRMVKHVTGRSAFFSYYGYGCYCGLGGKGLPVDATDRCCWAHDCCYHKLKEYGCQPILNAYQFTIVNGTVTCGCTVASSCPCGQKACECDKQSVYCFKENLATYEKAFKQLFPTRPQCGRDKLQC
Chain of Group IIE secretory phospholipase A2 (Homo sapiens, UniProt Q9NZK7) (Q9NZK7 whole entry): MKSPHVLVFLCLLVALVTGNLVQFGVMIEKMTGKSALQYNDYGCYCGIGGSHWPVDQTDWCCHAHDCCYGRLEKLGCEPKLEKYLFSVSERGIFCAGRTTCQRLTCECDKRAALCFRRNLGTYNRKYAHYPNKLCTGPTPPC
Chain of Phospholipase A2 group V (Homo sapiens, UniProt P39877) (P39877 whole entry): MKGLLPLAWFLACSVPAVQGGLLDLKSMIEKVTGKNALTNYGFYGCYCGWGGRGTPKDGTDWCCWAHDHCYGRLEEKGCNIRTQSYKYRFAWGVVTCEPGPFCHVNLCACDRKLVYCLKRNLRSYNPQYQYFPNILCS
Chain of Translocator protein (Rattus norvegicus, UniProt P16257) (P16257 whole entry, looked up): as the sequence (P16257 whole entry, looked up) above
Chain of Group 10 secretory phospholipase A2 (Mus musculus, UniProt Q9QXX3) (Q9QXX3 whole entry): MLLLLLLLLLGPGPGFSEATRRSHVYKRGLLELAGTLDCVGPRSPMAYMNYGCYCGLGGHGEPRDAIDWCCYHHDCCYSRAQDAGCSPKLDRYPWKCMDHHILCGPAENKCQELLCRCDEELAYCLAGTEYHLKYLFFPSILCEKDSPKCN

On to `C[N+](C)(C)CCCNC(=O)C(=O)c1cc(Br)ccc1NC(=O)c1ccc2ccccc2c1.[I-]`, for which the MIC in the assay on Staphylococcus aureus [1] worked out at 39 µg/mL.

Regarding `CCCCN(CCCC)C(=O)C(=O)c1c(-c2ccc(Cl)cc2)[nH]c2ccc(Cl)cc12`, in assay [2], the Activity was 147%.

On to `CC(C)(C)OC(=O)Nc1cccn([C@@H](CC2CCCCC2)C(=O)N[C@@H](C[C@@H]2CCNC2=O)C(=O)C(=O)NCc2ccccc2)c1=O`, for which, in assay [3], it took 2390 nM to reach half-maximal inhibition (IC50).

Take `CCc1c(CC(N)=O)c2c(OCC(=O)O)cccn2c1Cc1cccc2ccccc12`: the IC50 in assay [4] stood at 30 nM; in assay [5], 5 nM.

For the molecule `CC(C)C[C@H](NC(=O)C(=O)c1c(-c2ccccc2)[nH]c2ccccc12)C(=O)N[C@H](Cc1ccccc1)C(=O)O`, the Ki at Translocator protein [6] is 202 nM.

`CCc1c(C(=O)C(N)=O)c2c(OCC(O)CC)cccn2c1Cc1cccc(Cl)c1` (stereo not given) had an IC50 in [4] of 19000 nM.

`Nc1cccn([C@@H](CC2CC2)C(=O)N[C@@H](C[C@@H]2CCNC2=O)C(=O)C(=O)NCc2ccccc2)c1=O` came in with an EC50 with SARS-CoV-2 of 4 µM.

Take `CCOC(=O)CNC(=O)C(=O)c1ccccc1Nc1ccc([N+](=O)[O-])cc1[N+](=O)[O-]`: the inhibition stood at 48.7% in the assay on Pseudomonas aeruginosa and 73.6% with Escherichia coli [7].

Regarding `Cc1c(C(=O)C(N)=O)c2c(OCn3cnnn3)cccn2c1Cc1ccccc1-c1ccccc1`, the IC50 in assay [4] and in [5] was 7 nM throughout.

Regarding `CCOC(=O)[C@@H](Cc1ccccc1)NC(=O)[C@H](CC(C)C)NC(=O)C(=O)c1c(-c2ccccc2)[nH]c2ccc(N=C=S)cc12`, the Ki on Translocator protein [8] came out at 108 nM.

In the case of `CC(C)(C)OC(=O)Nc1cccn([C@@H](CC2CC2)C(=O)N[C@@H](C[C@@H]2CCNC2=O)C(=O)C(=O)NCc2ccccc2)c1=O`, the IC50 was found to be 900 nM in assay [9] and 580 nM in [10].

On to `CCOC(=O)[C@@H](Cc1ccccc1)NC(=O)[C@H](CC(C)C)NC(=O)C(=O)c1c(-c2ccccc2)[nH]c2ccccc12`, for which, on Translocator protein [6], the Ki turned out to be 438 nM.

With `C[N+](C)(C)CCCNC(=O)C(=O)c1cc(Br)ccc1NC(=O)c1ccc2ccccc2c1.[Cl-]`, the MIC with Staphylococcus aureus [1] worked out at 16 µg/mL.

`CCCCCCCCCS(=O)(=O)Nc1ccc(Br)cc1C(=O)C(=O)NCCCNC(=N)N`: in the assay on Staphylococcus aureus [11], the MIC amounted to 12 µM (≈ 6.39 µg/mL).

As for `O=C(NCc1ccccc1)C(=O)c1c[nH]c2ccc([N+](=O)[O-])cc12`, the inhibition came out at 32% in [12], 65% in assay [13] and 44% in [14].

Consider `O=C(Nc1ccc(F)cc1)C(=O)c1ccc2c(c1)c1ccccc1n2Cc1ccc(Cl)cc1`, for which the MIC is above 8 µg/mL in the assay with Staphylococcus aureus [15], 16 µg/mL with Bacillus cereus, 16 µg/mL in the assay with Pseudomonas putida and 8 µg/mL in the assay on Escherichia coli [16].

With `Cc1c(C(=O)C(N)=O)c2c(OCC(=O)O)cccn2c1Cc1ccccc1-c1ccccc1`, the IC50 in assay [17] was 10 nM; in assay [18], 100 nM; in [19], 100 nM; in assay [20], 10 nM; against Phospholipase A2 group V [21], 10 nM; against Phospholipase A2 [22] it was 100 nM. Besides, the IC50 stood at 10 nM in assay [23]; 100 nM against Phospholipase A2 [24]; 10 nM in assay [25]; 10 nM at Phospholipase A2 group V [26]; 10 nM in assay [27]; 1.4 nM in [5].

For `CCc1c(C(=O)C(=O)NC)c2c(OCC(=O)O)cccn2c1Cc1ccccc1`, the IC50 in [4] was above 50000 nM.

With `CN1C(=O)CN=C(c2ccc(Cl)cc2)c2cc(Cl)ccc21`, in [2], the Activity came out at 41%.

As to `CCC(C)N(C)C(=O)c1cc2ccccc2c(-c2ccccc2Cl)n1` (stereo not given), in assay [2], the Activity was 48%.

As for `CCCCCCN(CCCCCC)C(=O)C(=O)c1c(-c2ccc(Cl)cc2)[nH]c2ccc(Cl)cc12`, the Activity in assay [2] was determined as 166%.

Regarding `CCN(CC)c1ccc(/C=C/c2ccccc2C(=O)NC(Cc2ccccc2)C(=O)C(N)=O)cc1` (stereo not given), the Ki on Procathepsin L is 137 nM; at Cathepsin S, 3.29 µM; at Cathepsin K it was 1.8 nM; on Cathepsin B, 28 nM; in assay [29], 56 nM. Besides, the inhibition in assay [28] worked out at 94%; in the assay filed under Homo sapiens, 84%.

Regarding `CCCN(CCC)C(=O)C(=O)c1c(-c2ccccc2)[nH]c2ccc(C)cc12`, the Activity in assay [2] stood at 148%. Moreover, the Ki on Translocator protein [30] stood at 5.5 nM.

Source of the values: ChEMBL document CHEMBL5149980, “The Alpha Keto Amide Moiety as a Privileged Motif in Medicinal Chemistry: Current Insights and Emerging Opportunities” (J Med Chem, 2021).
